Experimental data: patent EP3730489A1, “HETEROARYL COMPOUNDS AS AGROCHEMICAL FUNGICIDES” (BASF SE, priority 2019, dated 2020)

Legend:
Type in all cases: cell-based
[1] = tested on: Fusarium culmorum; test: Activity against Fusarium culmorum (Fusacu), microtiter plate test; settings: relative growth vs active compound-free control (100%), measured at 405 nm 7 days after the inoculation; for activity at 31 ppm: Fusarium culmorum, 168 h
Procedure: (§1) The active compounds were formulated separately as a stock solution having a concentration of 10000 ppm in dimethyl sulfoxide.
4. Activity against Fusarium culmorum (Fusacu)
(§2) The stock solutions were mixed according to the ratio, pipetted onto a micro titer plate (MTP) and diluted with water to the stated concentrations. A spore suspension of Fusarium culmorum in an aqueous biomalt or yeast-bactopeptone-glycerine solution was then added. The plates were placed in a water vapor-saturated chamber at a temperature of 18°C. Using an absorption photometer, the MTPs were measured at 405 nm 7 days after the inoculation.
(§3) The measured parameters were compared to the growth of the active compound-free control variant (100%) and the fungus-free and active compound-free blank value to determine the relative growth in % of the pathogens in the respective active compounds.

[2] = tested on: Botrytis cinerea; test: Activity against the grey mold Botrytis cinerea in the microtiterplate test (Botrci); settings: relative growth vs active compound-free control (100%), measured at 405 nm 7 days after the inoculation
Procedure: as §1
1. Activity against the grey mold Botrytis cinerea in the microtiterplate test (Botrci)
as §2, with “Botrci cinerea” for “Fusarium culmorum”, “yeast-bactopeptone-sodiumacetate” for “yeast-bactopeptone-glycerine”
as §3

[3] = tested on: Septoria tritici; test: Activity against leaf blotch on wheat caused by Septoria tritici (Septtr), microtiter plate test; settings: relative growth vs active compound-free control (100%), measured at 405 nm 7 days after the inoculation
Procedure: as §1
3. Activity against leaf blotch on wheat caused by Septoria tritici (Septtr)
as §2, with “Septoria tritici” for “Fusarium culmorum”
as §3

Row | Molecule | activity at 31 ppm [1] | growth (%) at 31ppm Botrci [2] | growth (%) at 31ppm Septtr [3] | growth (%) at 31ppm Fusacu [1]
1 | Fc1cnc2[nH]cc(-c3ocnc3C(F)(F)F)c2c1 [Example 8, 5-(5-fluoro-1H-pyrrolo[2,3-b]pyridin-3-yl)-4-(trifluoromethyl)oxazole] | 6% | – | – | –
2 | N#Cc1ccc2[nH]cc(-c3ocnc3C(F)(F)F)c2c1 [Example 2, 3-[4-(trifluoromethyl)oxazol-5-yl]-1H-indole-5-carbonitrile] | 7% | 6% | – | –
3 | C#Cc1cnc2[nH]cc(-c3ocnc3C(F)(F)F)c2c1 [Example 6, 5-(5-ethynyl-1H-pyrrolo[2,3-b]pyridin-3-yl)-4-(trifluoromethyl)oxazole] | 1% | 5% | 12% | –
4 | N#Cc1ccc2[nH]cc(-c3sccc3Br)c2c1 [Example P4] | 17% | – | – | –
5 | FC(F)Oc1ccc2[nH]cc(-c3sccc3C(F)(F)F)c2n1 [Example P5] | 0% | 1% | 4% | –
6 | C#Cc1cnc2[nH]cc(-c3ocnc3Br)c2c1 [Example P8] | 0% | – | 15% | –
7 | 3-[3-(trifluoromethyl)-2-thienyl]-1H-indole-5-carbonitrile [Example 1] | – | – | 14% | 0%
8 | Fc1cnc2[nH]cc(-c3ocnc3I)c2c1 [Example 9, 5-(5-fluoro-1H-pyrrolo[2,3-b]pyridin-3-yl)-4-iodooxazole] | 11% | – | – | –
9 | FC(F)(F)c1ncoc1-c1c[nH]c2ccc(Br)cc12 [Example P6] | – | 1% | 2% | –
10 | Clc1ccsc1-c1c[nH]c2ccc(Br)cc12 [Example P1] | 1% | 0% | 8% | –
11 | C#Cc1ccc2[nH]cc(-c3sccc3Cl)c2c1 [Example P2] | 1% | 1% | 12% | –
12 | Brc1ccc2[nH]cc(-c3sccc3Br)c2c1 [Example P3] | 0% | 0% | 0% | –
13 | C#Cc1cnc2[nH]cc(-c3ocnc3C(F)F)c2c1 [Example P10] | 6% | – | – | –
14 | Fc1ncc2[nH]cc(-c3sccc3C(F)(F)F)c2n1 [Example P17] | 14% | – | – | –
